The text below walks through data of PubChem BioAssay AID180 (DTP/NCI, 2004).

The subject of the assay is BDF1 mice, Adenocarcinoma 755 s.c., tumor weight T/C. Put plainly: NCI In Vivo Anticancer Drug Screen. Data for tumor model Adenocarcinoma 755 (subcutaneous) in B6D2F1 (BDF1) mice. Conditions: endpoint: mean tumor weight, schedule: Q01DX011 (ip), higher = larger tumour. A digest of the protocol: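 Tumor-bearing mice receive test compound while controls get vehicle alone. Antitumor effect is scored from survival or tumor dimensions as a T/C quotient.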

The mark [1] stands for this setting: dose: 12.5 mg/kg/injection, vehicle: carboxymethylcellulose (CMC).
Setting [2] is: dose: 30.0 mg/kg/injection, vehicle: carboxymethylcellulose (CMC).
[3] abbreviates: dose: 120.0 mg/kg/injection, vehicle: carboxymethylcellulose (CMC).
Setting [4] is: dose: 240.0 mg/kg/injection, vehicle: carboxymethylcellulose (CMC).

Each structure is given as a SMILES string. Values joined by “and” are separate entries in the source; they are usually repeats but may differ in a detail not shown here. Equal values may be shown once.

For the molecule `CN1CCN(CCCN2c3ccccc3Sc3ccc(C(F)(F)F)cc32)CC1`, the T/C (dose: 22.0 mg/kg/injection, vehicle: saline) was 32 % of control.
Consider `COC12C(COC(N)=O)C3=C(C(=O)C(C)=C(N)C3=O)N1CC1C2N1C` (stereo not drawn), for which the T/C reads like this: (dose: 1.25 mg/kg/injection, vehicle: carboxymethylcellulose (CMC)) 62 % of control; (dose: 2.5 mg/kg/injection, vehicle: carboxymethylcellulose (CMC)) 52 % of control; (dose: 5.0 mg/kg/injection, vehicle: carboxymethylcellulose (CMC)) 27 % of control; (dose: 10.0 mg/kg/injection, vehicle: carboxymethylcellulose (CMC)) 3 % of control and 7 % of control.
As for `c1nc(N2CC2)c2ncn(C3CCCCC3)c2n1`, the T/C is 36 % of control under setting [1] and 94 % of control (dose: 50.0 mg/kg/injection, vehicle: carboxymethylcellulose (CMC)).
On to `CCCn1cnc2c(=S)nc[nH]c21`, for which the T/C by setting is: (dose: 0.25 mg/kg/injection, vehicle: carboxymethylcellulose (CMC)) 80 % of control; (dose: 1.0 mg/kg/injection, vehicle: carboxymethylcellulose (CMC)) 53 % of control; (dose: 3.0 mg/kg/injection, vehicle: carboxymethylcellulose (CMC)) 8 % of control and 11 % of control; (dose: 4.0 mg/kg/injection, vehicle: carboxymethylcellulose (CMC)) 7 % of control; (dose: 6.25 mg/kg/injection, vehicle: carboxymethylcellulose (CMC)) 6 % of control; (dose: 8.0 mg/kg/injection, vehicle: carboxymethylcellulose (CMC)) 10 % of control. For the same molecule, the T/C is 5 % of control under setting [1]; 4 % of control and 9 % of control (dose: 16.0 mg/kg/injection, vehicle: carboxymethylcellulose (CMC)); 2 % of control (dose: 25.0 mg/kg/injection, vehicle: carboxymethylcellulose (CMC)); 7 % of control (dose: 31.0 mg/kg/injection, vehicle: carboxymethylcellulose (CMC)); 6 % of control (dose: 62.0 mg/kg/injection, vehicle: carboxymethylcellulose (CMC)).
Consider `CCCCCCOP(=O)(N1CC1C)N1CC1C` (stereo not drawn), for which the T/C by setting is: (dose: 12.5 mg/kg/injection, vehicle: saline) 100 % of control; (dose: 100.0 mg/kg/injection, vehicle: saline) 13 % of control and 19 % of control and 26 % of control.
Regarding `CC1CN1P(=O)(N1CCc2ccccc21)N1CC1C` (stereo not drawn), the T/C runs as follows: (dose: 28.0 mg/kg/injection, vehicle: carboxymethylcellulose (CMC)) 97 % of control; (dose: 56.0 mg/kg/injection, vehicle: carboxymethylcellulose (CMC)) 67 % of control; (dose: 113.0 mg/kg/injection, vehicle: carboxymethylcellulose (CMC)) 41 % of control; (dose: 226.0 mg/kg/injection, vehicle: carboxymethylcellulose (CMC)) 2 % of control.
Take `CC1CN1P(=O)(N1CCCCC1)N1CC1C` (stereo not drawn): the T/C is 107 % of control and 86 % of control (dose: 3.0 mg/kg/injection, vehicle: saline); 57 % of control and 71 % of control (dose: 6.0 mg/kg/injection, vehicle: saline); 11 % of control (dose: 48.0 mg/kg/injection, vehicle: saline).
On to `CC(=O)OCC1OC(n2cnc3c(N)ncnc32)CC1OC(C)=O` (stereo not drawn), for which the T/C was 55 % of control and 68 % of control under setting [2]; 97 % of control and 111 % of control under setting [3]; 108 % of control and 109 % of control under setting [4].
Take `CC(=O)OCC1OC(n2cnc3c(=O)[nH]c(N)nc32)CC1OC(C)=O` (stereo not drawn): the T/C runs as follows: under setting [2], 115 % of control; (dose: 60.0 mg/kg/injection, vehicle: carboxymethylcellulose (CMC)) 95 % of control; under setting [3], 94 % of control; under setting [4], 115 % of control.
Consider `Cc1nc2nc(N)nc(N)c2nc1C`, for which the T/C was 67 % of control (dose: 12.62 mg/kg/injection, vehicle: carboxymethylcellulose (CMC)); 50 % of control (dose: 15.63 mg/kg/injection, vehicle: carboxymethylcellulose (CMC)); 122 % of control and 123 % of control (dose: 62.5 mg/kg/injection, vehicle: carboxymethylcellulose (CMC)); 58 % of control (dose: 125.0 mg/kg/injection, vehicle: carboxymethylcellulose (CMC)).

One may read the T/C as the ratio of treated to control.
